One experiment has as its target T1, HA-MBP-POLE2 (Homo sapiens, UniProt P56282).
T1 construct: POLE2: UniProt ID P56282, residues 1-527; expressed in transfected cells; host or cells: HEK293T
The experiment in a line: Titration nHU, Western blot, HA-MBP-POLE2 in 293T cell extract. The class given is binding. The note with it: MBP-tagged POLE2, depending on the experimental setup, authors' rebuttal; read-out: dissociation constants. The source says: (§1) To identify the partners of NPF motifs, we used the native holdup (nHU) assay that was recently developed by our team (Fig. 1B). The holdup approach has been extensively used to determine equilibrium dissociation constants of transient interactions mediated by PDZ and SH3 domains, 14-3-3, and human papilloma virus E6 proteins, and even nucleic acid-protein interactions[7],[30]–[35]. In the nHU experiments, a purified bait molecule, or a control compound, is immobilized on a resin at high concentration (typically 10 μM, or higher) and these resin stocks are subsequently mixed with dilute cell extracts. […] This liquid phase contains the unbound prey molecules at near binding equilibrium that can be quantified using selective and quantitative analytical approaches, such as mass spectrometry. Therefore, proteins that interact with the bait molecule will appear to be depleted in the solvent phase and by measuring its relative concentration compared to the control nHU experiment, the degree of binding (θ) can be determined that can be converted to apparent steady-state dissociation constants, according to:1 θ=1−Ifree/Itot=Cbait/Cbait+Kapp where Itot and Ifree are the measured total and bait-depleted equilibrium mass spectrometry total ion intensities of prey proteins, Cbait is the bait molecule concentration and Kapp is the apparent dissociation constant. […]

A further experiment has as its target T2, EPS15 (Homo sapiens, UniProt P42566).
T2 construct: endogenous in cells; host or cells: Jurkat E6.1
T2 sequence (P42566 1-896): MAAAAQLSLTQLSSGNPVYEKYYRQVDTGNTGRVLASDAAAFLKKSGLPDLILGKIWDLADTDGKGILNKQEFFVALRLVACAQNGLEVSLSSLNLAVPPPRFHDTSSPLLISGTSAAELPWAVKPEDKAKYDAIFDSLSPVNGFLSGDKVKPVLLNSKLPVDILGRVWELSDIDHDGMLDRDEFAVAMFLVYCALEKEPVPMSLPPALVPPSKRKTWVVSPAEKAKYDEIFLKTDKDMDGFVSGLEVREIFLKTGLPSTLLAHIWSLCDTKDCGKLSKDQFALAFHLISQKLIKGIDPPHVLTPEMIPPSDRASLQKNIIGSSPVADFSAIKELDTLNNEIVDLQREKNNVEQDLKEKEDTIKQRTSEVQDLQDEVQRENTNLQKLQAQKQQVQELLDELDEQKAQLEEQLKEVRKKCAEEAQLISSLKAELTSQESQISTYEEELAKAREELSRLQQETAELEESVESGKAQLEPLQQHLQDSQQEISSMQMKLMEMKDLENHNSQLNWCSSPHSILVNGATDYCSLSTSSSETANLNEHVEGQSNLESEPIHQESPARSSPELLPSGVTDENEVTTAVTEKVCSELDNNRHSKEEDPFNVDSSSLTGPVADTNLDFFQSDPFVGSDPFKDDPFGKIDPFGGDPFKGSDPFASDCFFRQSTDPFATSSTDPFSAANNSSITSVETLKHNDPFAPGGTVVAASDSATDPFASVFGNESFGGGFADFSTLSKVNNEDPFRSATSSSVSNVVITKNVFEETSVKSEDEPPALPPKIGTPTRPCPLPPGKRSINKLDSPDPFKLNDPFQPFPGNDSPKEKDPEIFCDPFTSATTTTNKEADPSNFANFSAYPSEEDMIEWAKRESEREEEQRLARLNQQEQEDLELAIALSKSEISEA
The experiment in a line: Titration nHU, Western blot, endogenous EPS15 in Jurkat extract. The class given is binding. To be noted: source data of Fig 5, titration nHU, unit inferred. The source says: To identify the partners of NPF motifs, we used the native holdup (nHU) assay that was recently developed by our team (Fig. 1B). The holdup approach has been extensively used to determine equilibrium dissociation constants of transient interactions mediated by PDZ and SH3 domains, 14-3-3, and human papilloma virus E6 proteins, and even nucleic acid-protein interactions[7],[30]–[35]. In the nHU experiments, a purified bait molecule, or a control compound, is immobilized on a resin at high concentration (typically 10 μM, or higher) and these resin stocks are subsequently mixed with dilute cell extracts. After a relatively long incubation, i.e., 2 h at 4 °C, the liquid phase is separated by centrifugation. This liquid phase contains the unbound prey molecules at near binding equilibrium that can be quantified using selective and quantitative analytical approaches, such as mass spectrometry. Therefore, proteins that interact with the bait molecule will appear to be depleted in the solvent phase and by measuring its relative concentration compared to the control nHU experiment, the degree of binding (θ) can be determined that can be converted to apparent steady-state dissociation constants, according to:1 θ=1−Ifree/Itot=Cbait/Cbait+Kapp where Itot and Ifree are the measured total and bait-depleted equilibrium mass spectrometry total ion intensities of prey proteins, Cbait is the bait molecule concentration and Kapp is the apparent dissociation constant.
Jurkat E6.1 cells (ECACC #88042803, RRID: CVCL_0367) were grown in RPMI (Gibco) medium completed with 10% FBS (Gibco BRL) and 40 μg/ml gentamicin (Gibco/Life Technology). To prepare total cell extracts, Jurkat cells were seeded onto T-175 flasks and grew until 3 × 10^6 cells/ml confluency. Cells were collected by 1000 g x 5 min centrifugation, washed with PBS and then lysed in ice-cold lysis buffer (Hepes-KOH pH 7.5 50 mM, NaCl 150 mM, Triton X-100 1%, cOmplete EDTA-free protease inhibitor cocktail 5x, TCEP 5 mM, glycerol 10%).
Cell suspensions were sonicated 4×20 sec with 1 sec long pulse on ice, then incubated rotating at 4 °C for 30 min. The lysates were centrifuged at 12,000 rpm 4 °C for 20 min and supernatant was kept. Total protein concentration was measured by standard Bradford method (Bio-Rad Protein Assay Dye Reagent #5000006) using a BSA calibration curve (MP Biomedicals #160069, diluted in lysis buffer) on a Bio-Rad SmartSpec 3000 spectrophotometer instrument.
Titration holdup experiments were carried out as described above using 25 μl saturated resins prepared. Briefly, we mixed control, or bait-saturated resins at various proportions by keeping the total resin amount and resin-analyte ratio constant during the experiment (for 25 μl we used 100 μl cell extract as analyte). In titration experiments with protein baits, bait concentration was determined as described above for the saturated resin stocks. Experiments were carried out at 4 °C for 2 h and recovered supernatants were subjected to western blot or dot blot analysis.
For Western blot, samples were mixed with 4x Laemmli Sample Buffer in 3:1 ratio. Equal amounts of samples were loaded on 6-10% acrylamide-gels (generally 16 μg). Transfer was done into PVDF membranes using a Trans-Blot Turbo Transfer System and Trans-Blot Turbo RTA Transfer Kit (BioRad, #1704275). For Dot blot, nHU samples were directly loaded on Nitrocellulose membranes using 48 Sample vacuum manifold (Cleaver Scientific) following the manufacturer’s recommendations. […]
A general note: In western blotting, separated proteins are transferred to a membrane and probed.

In another experiment the target is DDX18 (Homo sapiens, UniProt Q9NVP1). The experiment in a line: nHU-MS peptide bait, prey DDX18.
Chain of DDX18 (Q9NVP1 whole entry): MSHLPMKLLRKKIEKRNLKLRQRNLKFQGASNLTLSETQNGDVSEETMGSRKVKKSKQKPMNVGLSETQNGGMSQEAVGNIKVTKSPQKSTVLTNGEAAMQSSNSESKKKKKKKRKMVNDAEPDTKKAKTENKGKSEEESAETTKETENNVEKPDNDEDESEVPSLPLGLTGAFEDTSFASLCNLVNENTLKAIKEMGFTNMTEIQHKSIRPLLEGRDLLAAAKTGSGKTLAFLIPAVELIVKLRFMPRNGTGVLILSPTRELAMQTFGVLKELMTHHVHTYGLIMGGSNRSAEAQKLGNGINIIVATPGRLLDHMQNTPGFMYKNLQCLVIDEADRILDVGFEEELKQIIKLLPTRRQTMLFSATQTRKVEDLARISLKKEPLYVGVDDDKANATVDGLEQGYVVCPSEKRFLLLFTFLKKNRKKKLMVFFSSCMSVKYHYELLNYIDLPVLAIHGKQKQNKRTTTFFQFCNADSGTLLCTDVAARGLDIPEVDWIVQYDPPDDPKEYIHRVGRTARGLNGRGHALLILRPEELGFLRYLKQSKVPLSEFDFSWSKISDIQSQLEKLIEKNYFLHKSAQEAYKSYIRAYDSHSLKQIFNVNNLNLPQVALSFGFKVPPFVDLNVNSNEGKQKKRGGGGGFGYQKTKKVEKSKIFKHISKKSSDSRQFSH
For the next experiment, the target named is T3, HA-POLE2 (Homo sapiens, UniProt P56282).
T3 construct: POLE2: UniProt ID P56282, residues 1-527; expressed in transfected cells; host or cells: HEK293T
T3 sequence (P56282 whole entry, the tested form may be a part): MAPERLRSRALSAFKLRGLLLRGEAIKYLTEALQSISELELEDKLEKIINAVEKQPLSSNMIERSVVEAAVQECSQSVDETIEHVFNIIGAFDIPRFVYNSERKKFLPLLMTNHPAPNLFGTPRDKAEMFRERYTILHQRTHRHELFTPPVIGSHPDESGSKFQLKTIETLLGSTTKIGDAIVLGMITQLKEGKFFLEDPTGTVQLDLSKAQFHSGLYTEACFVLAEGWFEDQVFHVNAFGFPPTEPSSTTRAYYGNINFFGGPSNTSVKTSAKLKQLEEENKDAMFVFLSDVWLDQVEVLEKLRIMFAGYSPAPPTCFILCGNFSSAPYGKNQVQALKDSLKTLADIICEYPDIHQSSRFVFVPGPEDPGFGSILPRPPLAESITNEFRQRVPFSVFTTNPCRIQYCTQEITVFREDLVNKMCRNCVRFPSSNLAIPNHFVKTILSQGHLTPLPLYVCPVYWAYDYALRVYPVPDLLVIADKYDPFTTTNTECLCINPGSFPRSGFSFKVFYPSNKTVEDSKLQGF
The experiment in a line: Titration nHU, Western blot, HA-POLE2 in 293T cell extract. The class given is binding. The note with it: HA-tagged POLE2, range over assays, authors' rebuttal; read-out: dissociation constant.
Text: as §1

Another experiment addresses GTPBP4 (Homo sapiens, UniProt Q9BZE4). The experiment in a line: nHU-MS peptide bait, prey GTPBP4.
The target of another experiment is CD2AP (Homo sapiens, UniProt Q9Y5K6). The experiment in a line: nHU-MS peptide bait, prey CD2AP.
Chain of CD2AP (Q9Y5K6 whole entry): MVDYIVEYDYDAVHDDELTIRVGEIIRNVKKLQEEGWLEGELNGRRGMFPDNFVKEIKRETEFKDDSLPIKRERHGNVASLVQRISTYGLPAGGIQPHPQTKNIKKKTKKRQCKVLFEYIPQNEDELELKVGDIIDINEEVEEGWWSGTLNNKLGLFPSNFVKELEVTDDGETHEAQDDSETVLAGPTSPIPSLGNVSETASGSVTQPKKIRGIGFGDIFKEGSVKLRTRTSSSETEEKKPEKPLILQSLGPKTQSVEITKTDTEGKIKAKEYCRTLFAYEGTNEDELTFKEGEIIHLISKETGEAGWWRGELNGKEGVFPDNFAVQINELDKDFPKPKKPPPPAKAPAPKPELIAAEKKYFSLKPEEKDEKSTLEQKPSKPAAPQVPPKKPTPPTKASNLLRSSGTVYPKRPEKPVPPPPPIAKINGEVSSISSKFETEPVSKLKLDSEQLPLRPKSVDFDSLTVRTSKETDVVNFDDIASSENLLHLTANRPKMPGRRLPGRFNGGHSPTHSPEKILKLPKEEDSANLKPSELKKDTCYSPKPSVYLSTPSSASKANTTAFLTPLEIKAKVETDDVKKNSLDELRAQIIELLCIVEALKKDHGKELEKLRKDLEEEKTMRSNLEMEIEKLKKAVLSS
Another experiment deals with RFT1 (Homo sapiens, UniProt Q96AA3). The experiment in a line: nHU-MS peptide bait, prey RFT1.
Chain of RFT1 (Q96AA3 whole entry): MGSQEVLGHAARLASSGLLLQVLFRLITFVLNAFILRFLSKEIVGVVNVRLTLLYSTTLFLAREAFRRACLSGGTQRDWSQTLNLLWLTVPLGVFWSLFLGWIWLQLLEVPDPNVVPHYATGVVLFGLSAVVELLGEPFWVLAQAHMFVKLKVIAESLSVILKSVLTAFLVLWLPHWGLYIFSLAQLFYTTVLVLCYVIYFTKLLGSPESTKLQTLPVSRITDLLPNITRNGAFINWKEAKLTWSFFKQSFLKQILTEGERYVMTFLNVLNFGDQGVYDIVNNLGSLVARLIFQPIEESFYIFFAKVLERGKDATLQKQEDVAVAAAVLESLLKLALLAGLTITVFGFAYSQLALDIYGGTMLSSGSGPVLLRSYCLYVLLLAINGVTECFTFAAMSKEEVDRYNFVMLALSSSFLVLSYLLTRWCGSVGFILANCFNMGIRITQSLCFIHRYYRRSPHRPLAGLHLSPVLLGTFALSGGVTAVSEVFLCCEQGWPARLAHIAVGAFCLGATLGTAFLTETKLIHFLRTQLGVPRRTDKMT
A further experiment deals with HP1BP3 (Homo sapiens, UniProt Q5SSJ5). The experiment in a line: nHU-MS peptide bait, prey HP1BP3.
Chain of HP1BP3 (Q5SSJ5 whole entry): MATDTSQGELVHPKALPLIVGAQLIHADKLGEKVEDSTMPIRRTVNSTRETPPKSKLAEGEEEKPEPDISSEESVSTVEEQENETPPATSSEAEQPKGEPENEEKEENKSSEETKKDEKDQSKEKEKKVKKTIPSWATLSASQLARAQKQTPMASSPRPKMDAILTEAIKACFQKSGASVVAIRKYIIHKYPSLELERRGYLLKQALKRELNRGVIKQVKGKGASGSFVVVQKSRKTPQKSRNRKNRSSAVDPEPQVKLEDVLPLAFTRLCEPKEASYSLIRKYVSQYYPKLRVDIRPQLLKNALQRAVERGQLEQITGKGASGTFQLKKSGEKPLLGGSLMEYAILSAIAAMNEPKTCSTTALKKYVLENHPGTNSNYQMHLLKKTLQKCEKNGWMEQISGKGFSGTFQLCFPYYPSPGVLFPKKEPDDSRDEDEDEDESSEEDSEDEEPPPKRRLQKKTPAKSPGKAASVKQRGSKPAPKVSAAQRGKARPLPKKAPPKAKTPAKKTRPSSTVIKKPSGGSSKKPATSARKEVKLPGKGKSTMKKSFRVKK

The structures appear in SMILES notation. Residues, ends and D or L forms follow the SMILES beside them.

T1 sequence (P56282 whole entry, the tested form may be a part): as the sequence (P56282 whole entry, the tested form may be a part) above

`CC(C)C[C@H](NC(=O)[C@H](CCCNC(=N)N)NC(=O)[C@H](C)NC(=O)[C@H](Cc1ccccc1)NC(=O)[C@@H]1CCCN1C(=O)[C@H](CC(N)=O)NC(=O)[C@H](CCCNC(=N)N)NC(=O)[C@H](CCCNC(=N)N)NC(=O)[C@H](C)NC(=O)[C@H](C)NC(=O)[C@H](C)NC(=O)[C@@H]1CCCN1C(=O)CN)C(=O)N[C@@H](CC(=O)O)C(=O)N[C@@H](CC(N)=O)C(=O)N[C@@H](CCCNC(=N)N)C(=O)N1CCC[C@H]1C(=O)N[C@@H](CCCNC(=N)N)C(N)=O` [DONSON_71-88] (H-GPAAARRNPFARLDNRPR-NH2): the Kd on HA-MBP-POLE2 was 1 to 10 µM; at EPS15, over 60 µM; at DDX18, 29.5 µM; at HA-POLE2, 0.3 to 0.5 µM; at GTPBP4 it was 29.7 µM; on CD2AP, 18.8 µM. In addition, the Kd at RFT1 is 24.2 µM; at HP1BP3, 31.2 µM. The BI on DDX18 (prey DDX18, MS2_Varjosalo) was 0.2529; at GTPBP4 (prey GTPBP4, MS2_Varjosalo), 0.252; at CD2AP (prey CD2AP, MS7_Varjosalo), 0.3476; on RFT1 (prey RFT1, MS7_Varjosalo) it was 0.292; at HP1BP3 (prey HP1BP3, MS2_Varjosalo), 0.2425.

The record behind these values is PMC12808100, “The non-catalytic DNA polymerase ε subunit is an NPF motif recognition protein” (Nature Communications, 2025).
